Test results taken from patent publication US20120157451A1, “RAF INHIBITOR COMPOUNDS AND METHODS OF USE THEREOF” (GENENTECH, INC, priority 2009, published 2012).
Each block holds one molecule with its values, some of them ahead of it.

What was measured:
V600E full-length B-Raf = target: T1, V600E full-length B-Raf (Homo sapiens, UniProt P15056, V600E); test: B-Raf IC50 assay (incorporation of radiolabeled phosphate from [γ-33P]ATP into FSBA-modified wild-type MEK); format: biochemical
T1 construct: made in house; host or cells: Sf9 insect cells (baculovirus)
T1 sequence (P15056 whole entry V600E): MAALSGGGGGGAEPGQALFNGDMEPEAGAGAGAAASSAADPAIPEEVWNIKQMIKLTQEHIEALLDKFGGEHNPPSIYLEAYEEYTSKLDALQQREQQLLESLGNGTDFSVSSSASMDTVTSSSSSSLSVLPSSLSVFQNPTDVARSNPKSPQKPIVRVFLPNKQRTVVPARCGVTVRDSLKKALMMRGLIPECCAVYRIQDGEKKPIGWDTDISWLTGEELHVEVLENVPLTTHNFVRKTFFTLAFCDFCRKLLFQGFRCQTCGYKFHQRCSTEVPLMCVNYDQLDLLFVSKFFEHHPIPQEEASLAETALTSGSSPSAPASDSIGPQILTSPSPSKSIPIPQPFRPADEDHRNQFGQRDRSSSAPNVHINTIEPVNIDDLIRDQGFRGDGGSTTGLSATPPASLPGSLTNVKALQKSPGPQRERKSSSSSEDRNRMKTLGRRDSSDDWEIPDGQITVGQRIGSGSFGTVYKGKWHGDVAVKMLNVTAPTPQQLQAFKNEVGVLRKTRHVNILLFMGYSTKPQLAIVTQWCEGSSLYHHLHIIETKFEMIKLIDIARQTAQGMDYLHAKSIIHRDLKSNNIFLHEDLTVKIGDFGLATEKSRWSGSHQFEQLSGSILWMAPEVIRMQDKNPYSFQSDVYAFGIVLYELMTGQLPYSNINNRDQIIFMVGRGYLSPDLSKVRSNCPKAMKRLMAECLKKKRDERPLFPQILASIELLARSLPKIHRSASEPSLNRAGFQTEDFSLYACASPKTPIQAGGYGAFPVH
Source text: Determining the activity of Raf in the sample is possible by a number of direct and indirect detection methods (US 2004/0082014). Activity of human recombinant B-Raf protein may be assessed in vitro by assay of the incorporation of radio labeled phosphate to recombinant MAP kinase (MEK), a known physiologic substrate of B-Raf, according to US 2004/0127496 and WO 03/022840.
Activity of human recombinant B-Raf protein may be assessed in vitro by assay of the incorporation of radio labeled phosphate to recombinant MAP kinase (MEK), a known physiologic substrate of B-Raf, according to US 2004/0127496 and WO 03/022840. Catalytically active human recombinant B-Raf protein is obtained by purification from sf9 insect cells infected with a human B-Raf recombinant baculovirus expression vector.
Incubations were carried out at 22° C. in a Costar 3365 plate (Corning). Prior to the assay, the B-Raf and FSBA-MEK were preincubated together in assay buffer at 1.5× (20 μL of 30 nM and 1.5 μM, respectively) for 15 minutes, and the assay was initiated by the addition of 10 μL of 10 μM ATP. Following the 60-minute incubation, the assay mixtures were quenched by the addition of 100 μL of 25% TCA, the plate was mixed on a rotary shaker for 1 minute, and the product was captured on a Perkin-Elmer GF/B filter plate using a Tomtec Mach III Harvester. After sealing the bottom of the plate, […] of Bio-Safe II (Research Products International) scintillation cocktail were added to each well and the plate was top-sealed and counted in a Topcount NXT (Packard).

[1] = tested on: basal ERK1/2 phosphorylation in Malme-3M cells; test: Cellular ERK 1/2 phosphorylation assay; format: cell-based; conditions: Homo sapiens, 1 hour incubation, pERK normalized to total ERK, representative data of multiple tests
Procedure: Inhibition of basal ERK1/2 phosphorylation was determined by the following in vitro […], which comprises incubating cells with a compound of Formula I for 1 hour and quantifying the fluorescent pERK signal on fixed cells and normalizing to total ERK signal.
Materials and Methods: Malme-3M cells were obtained from ATCC and grown in RPMI-1640 supplemented with 10% fetal bovine serum. Cells were plated in 96-well plates at 24,000 cells/well and allowed to attach for 16-20 hours at 37° C., 5% CO2. The media was removed, and DMSO-diluted compounds were added in RPMI-1640 at a final concentration of 1% DMSO. The cells were incubated with the compounds for 1 hour at 37° C., 5% CO2. The cells were washed with PBS and fixed in 3.7% formaldehyde in PBS for 15 minutes. This was followed by washing in PBS/0.05% Tween20 and permeabilizing in −20° C. 100% MeOH for 15 minutes. Cells were washed in PBS/0.05% Tween20 then blocked in Odyssey blocking buffer (LI-COR Biosciences) for 1 hour. Antibodies to phosphorylated ERK (1:400, Cell Signaling #9106, monoclonal) and total ERK (1:400, Santa Cruz Biotechnology #sc-94, polyclonal) were added to the cells and incubated 16-20 hours at 4° C. After washing with PBS/0.05% Tween20, the cells were incubated with fluorescently-labeled secondary antibodies (1:1000 goat anti-rabbit IgG-IRDye800, Rockland and 1:500 goat anti-mouse IgG-Alexa Fluor 680, Molecular Probes) for an additional hour. Cells were then washed and analyzed for fluorescence at both wavelengths using the Odyssey Infrared Imaging System (LI-COR Biosciences). Phosphorylated ERK signal was normalized to total ERK signal.

[2] = 4 μM ATP, 60-minute incubation, representative data of multiple tests

Structure (SMILES): CCCS(=O)(=O)Nc1ccc(F)c(C(=O)Nc2cnc3cc(OCCOC)nn3c2)c1Cl [Example 34, 2-chloro-6-fluoro-N-(2-(2-methoxyethoxy)pyrazolo[1,5-a]pyrimidin-6-yl)-3-(propylsulfonamido) benzamide]
IC50 (V600E full-length B-Raf; [2]): 46.1 nM | IC50 (V600E full-length B-Raf; bound stated): < 150 nM | IC50 [1]: 126 nM

Structure (SMILES): CCCS(=O)(=O)Nc1ccc(F)c(C(=O)Nc2cnc3cc(OC)nn3c2)c1F [Example 1, 2,6-difluoro-N-(2-methoxypyrazolo[1,5-a]pyrimidin-6-yl)-3-(propylsulfonamido)benzamide]
IC50 (V600E full-length B-Raf; [2]): 53.2 nM | IC50 (V600E full-length B-Raf; bound stated): < 150 nM | IC50 [1]: 68.8 nM

Structure (SMILES): CCCS(=O)(=O)Nc1ccc(F)c(C(=O)Nc2cnc3cc(N4CCCC4)nn3c2)c1F [Example 17, 2,6-difluoro-3-(propylsulfonamido)-N-(2-(pyrrolidin-1-yl)pyrazolo[1,5-a]pyrimidin-6-yl)benzamide]
IC50 (V600E full-length B-Raf; [2]): 367 nM | IC50 [1]: 664 nM

Structure (SMILES): COc1cc2ncc(NC(=O)c3c(F)ccc(NS(=O)(=O)N4CCCC4)c3F)cn2n1 [Example 24, 2,6-difluoro-N-(2-methoxypyrazolo [1,5-a]pyrimidin-6-yl)-3-(pyrrolidine-1-sulfonamido) benzamide]
IC50 (V600E full-length B-Raf; [2]): 260 nM | IC50 (V600E full-length B-Raf; bound stated): < 300 nM | IC50 [1]: 382 nM

Stronger by IC50 (V600E full-length B-Raf; [2]), values ahead:

IC50 (V600E full-length B-Raf; [2]): 7.78 nM | IC50 (V600E full-length B-Raf; bound stated): < 150 nM
Structure (SMILES): COc1cc2ncc(NC(=O)c3c(Cl)ccc(NS(=O)(=O)CCCF)c3F)cn2n1 [Example 22, 6-chloro-2-fluoro-3-(3-fluoropropyl-sulfonamido)-N-(2-methoxypyrazolo [1,5-a]pyrimidin-6-yl)benzamide]
IC50 [1]: 42.8 nM

IC50 (V600E full-length B-Raf; [2]): 4.09 nM | IC50 (V600E full-length B-Raf; bound stated): < 150 nM
Structure (SMILES): CCCS(=O)(=O)Nc1ccc(F)c(C(=O)Nc2cnc3cc(-c4cccc(N5CCN(C)CC5)c4)nn3c2)c1F [Example 11, 2,6-difluoro-N-(2-(3-(4-methylpiperazin-1-yl)phenyl)pyrazolo[1,5-a]pyrimidin-6-yl)-3-(propylsulfonamido)benzamide]
IC50 [1]: 9.55 nM

IC50 (V600E full-length B-Raf; [2]): 14.7 nM | IC50 (V600E full-length B-Raf; bound stated): < 150 nM
Structure (SMILES): CCCS(=O)(=O)Nc1ccc(F)c(C(=O)Nc2cnc3cc(-c4cccnc4)nn3c2)c1F [Example 10, 2,6-difluoro-3-(propylsulfonamido)-N-(2-(pyridin-3-yl)pyrazolo[1,5-a]pyrimidin-6-yl)benzamide]
IC50 [1]: 26.7 nM
